The nature of data set [1]: Metabolic stability rat liver microsome assessed as half life. The data set is classed as ADME. The following applies: microsomes. On the technique in general: Liver microsomes are vesicles of endoplasmic reticulum, rich in cytochrome P450 enzymes.
In another data set the target is T1, Estrogen receptor (Homo sapiens, UniProt P03372).
T1 sequence (P03372 whole entry): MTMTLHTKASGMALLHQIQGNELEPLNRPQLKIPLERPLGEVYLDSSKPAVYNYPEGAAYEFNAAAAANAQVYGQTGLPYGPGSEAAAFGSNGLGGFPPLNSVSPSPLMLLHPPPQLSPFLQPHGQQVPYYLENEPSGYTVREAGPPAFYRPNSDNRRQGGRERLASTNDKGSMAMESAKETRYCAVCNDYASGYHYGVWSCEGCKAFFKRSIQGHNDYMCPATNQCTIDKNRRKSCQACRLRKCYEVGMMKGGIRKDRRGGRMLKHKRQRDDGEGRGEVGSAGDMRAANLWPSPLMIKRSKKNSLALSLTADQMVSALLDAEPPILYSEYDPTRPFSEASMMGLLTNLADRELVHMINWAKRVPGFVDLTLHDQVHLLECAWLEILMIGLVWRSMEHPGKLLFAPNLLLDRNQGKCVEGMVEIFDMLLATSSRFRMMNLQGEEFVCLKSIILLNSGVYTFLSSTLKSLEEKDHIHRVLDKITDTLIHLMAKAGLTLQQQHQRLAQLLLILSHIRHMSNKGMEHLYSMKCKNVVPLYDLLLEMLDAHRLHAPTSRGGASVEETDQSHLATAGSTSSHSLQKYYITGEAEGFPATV
Description: Binding affinity to human ERalpha receptor assessed as inhibition constant.

The nature of data set [2]: Half life in rat at 3 mg/kg, po or 1 mg/kg, iv measured upto 24 hrs by LC-MS/MS analysis. The note with it: in vivo. In kind it is ADME, organism-based.
Data set [3] can be described thus: Cmax in dog at 3 mg/kg, po or 1 mg/kg, iv measured upto 24 hrs by LC-MS/MS analysis. The data set is classed as ADME, organism-based, Canis lupus familiaris. The following applies: in vivo.
A short description of data set [4]: Volume of distribution at steady state in rat at 3 mg/kg, po or 1 mg/kg, iv measured upto 24 hrs by LC-MS/MS analysis. The following applies: in vivo. In kind it is ADME, organism-based.
Data set [5] in a line: Oral bioavailability in mouse at 3 mg/kg measured upto 24 hrs by LC-MS/MS analysis. The note with it: in vivo. In kind it is ADME, organism-based.
Data set [6] is described as follows: Oral bioavailability in dog at 3 mg/kg measured upto 24 hrs by LC-MS/MS analysis. The data set is classed as ADME, organism-based, Canis lupus familiaris. The following applies: in vivo.
Another data set addresses T2, Cytochrome P450 1A2 (Homo sapiens, UniProt P05177).
T2 sequence (P05177 whole entry): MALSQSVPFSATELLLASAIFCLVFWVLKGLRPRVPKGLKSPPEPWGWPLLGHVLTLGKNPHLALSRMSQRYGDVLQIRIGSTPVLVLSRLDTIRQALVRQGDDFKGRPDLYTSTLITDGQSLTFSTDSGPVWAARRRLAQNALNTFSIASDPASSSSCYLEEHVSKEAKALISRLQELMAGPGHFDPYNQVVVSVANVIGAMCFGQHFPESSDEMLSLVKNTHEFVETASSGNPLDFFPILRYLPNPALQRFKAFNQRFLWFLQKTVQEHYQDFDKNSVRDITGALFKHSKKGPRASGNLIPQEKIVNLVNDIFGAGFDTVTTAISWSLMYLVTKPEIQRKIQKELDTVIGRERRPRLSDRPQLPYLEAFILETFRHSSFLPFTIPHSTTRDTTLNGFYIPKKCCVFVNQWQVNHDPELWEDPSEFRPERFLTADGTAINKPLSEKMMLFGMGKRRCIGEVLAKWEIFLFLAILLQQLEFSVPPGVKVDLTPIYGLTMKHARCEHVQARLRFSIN
Description: Inhibition of CYP1A2 in human liver microsomes incubated for 5 mins in presence of NADPH by LC-MS/MS analysis. In kind it is ADME, Microsome.

A further data set deals with T3, Cytochrome P450 2C8 (Homo sapiens, UniProt P10632).
T3 sequence (P10632 whole entry): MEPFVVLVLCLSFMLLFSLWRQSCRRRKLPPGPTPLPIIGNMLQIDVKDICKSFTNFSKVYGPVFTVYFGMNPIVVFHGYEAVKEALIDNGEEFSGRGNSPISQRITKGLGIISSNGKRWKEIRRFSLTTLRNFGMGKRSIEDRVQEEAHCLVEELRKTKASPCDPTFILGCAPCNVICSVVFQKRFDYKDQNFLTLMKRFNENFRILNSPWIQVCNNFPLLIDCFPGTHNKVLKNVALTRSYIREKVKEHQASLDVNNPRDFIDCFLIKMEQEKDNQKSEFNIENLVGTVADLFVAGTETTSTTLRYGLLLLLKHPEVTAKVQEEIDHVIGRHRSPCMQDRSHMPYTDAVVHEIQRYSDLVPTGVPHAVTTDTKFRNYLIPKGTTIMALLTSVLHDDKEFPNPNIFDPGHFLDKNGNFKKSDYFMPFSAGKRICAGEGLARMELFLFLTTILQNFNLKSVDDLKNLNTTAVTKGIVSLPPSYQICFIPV
Description: Inhibition of CYP2C8 in human liver microsomes incubated for 5 mins in presence of NADPH by LC-MS/MS analysis. The data set is classed as ADME, Microsome.

For a further data set, the target named is Cytochrome P450 3A4 (Homo sapiens, UniProt P08684). Description: Inhibition of CYP3A4 in human liver microsomes using midazolam as substrate preincubated for 5 mins followed by NADPH addition and measured after 10 mins by LC-MS/MS analysis. The data set is classed as ADME, Microsome.
The target in data set [7] is T4, Protein cereblon/Estrogen receptor (Homo sapiens, UniProt P03372+Q96SW2). Description: PROTAC activity at CRBN/ERalpha in human T47D cells assessed as reduction in ERalpha protein level at 3 nM measured at 4 hrs by Western blot analysis. In kind it is cell-based. A general note: A western blot detects proteins with antibodies after separation by electrophoresis.

Data set [8] has as its target T4, Protein cereblon/Estrogen receptor. Description: PROTAC activity at CRBN/ERalpha in human T47D cells assessed as reduction in ERalpha protein level at 10 nM measured at 4 hrs by Western blot analysis. The data set is classed as cell-based.
For data set [9] the target is unchanged. Description: PROTAC activity at CRBN/ERalpha in human MCF7 cells assessed as reduction in ERalpha protein level at 5 nM measured for 4 hrs in presence of lasofoxifene by Western blot analysis. In kind it is cell-based.
Data set [10] has the same target. Description: PROTAC activity at CRBN/ERalpha in human MCF7 cells assessed as reduction ER level measured for 5 hrs by Western blot analysis. The data set is classed as cell-based. The note with it: dose 0.5-500 nM.
A short description of data set [11]: Drug concentration in SCID mouse plasma at 10 mg/kg, po administered daily for 3 days and measured after 6 hrs by LC-MS/MS analysis. The data set is classed as ADME, organism-based.
Data set [12] deals with Protein cereblon/Estrogen receptor (Homo sapiens), P03372+Q96SW2 [Y537S]. Description: In vivo PROTAC activity at CRBN/ESR1 Y537S mutant in SCID mouse xenografted with human MCF7 cells assessed as reduction in ESR1 Y537S level in tumor at 10 to 30 mg/kg, po administered once daily for 3 days measured after 24 hrs by Western blot analysis. In kind it is functional, organism-based. On the set-up: scale not given: the % may be the effect or the level left. The note with it: dose 10-30 mg/kg, time […]. On the technique in general: In xenograft studies the graft and the host belong to different species.

The nature of data set [13]: Toxicity in SCID mouse implanted with human MCF7 cells ESR1 Y537S mutant assessed as change in body weight at 3 to 30 mg/kg, po administered 5 days a week for 7 weeks. The data set is classed as organism-based. The following applies: in vivo, 1176 h, dose 3-30 mg/kg.
Data set [14] is described as follows: Drug concentration in SCID mouse tumor at 10 mg/kg, po administered once daily measured at 24 hrs by LC-MS/MS analysis. In kind it is ADME, organism-based, Neoplasm. The following applies: read-out: Ct.

Calls of active or inactive are those of the source. No cut-off for these calls is given here.

T4 sequence (Q96SW2 whole entry, looked up, one chain of several): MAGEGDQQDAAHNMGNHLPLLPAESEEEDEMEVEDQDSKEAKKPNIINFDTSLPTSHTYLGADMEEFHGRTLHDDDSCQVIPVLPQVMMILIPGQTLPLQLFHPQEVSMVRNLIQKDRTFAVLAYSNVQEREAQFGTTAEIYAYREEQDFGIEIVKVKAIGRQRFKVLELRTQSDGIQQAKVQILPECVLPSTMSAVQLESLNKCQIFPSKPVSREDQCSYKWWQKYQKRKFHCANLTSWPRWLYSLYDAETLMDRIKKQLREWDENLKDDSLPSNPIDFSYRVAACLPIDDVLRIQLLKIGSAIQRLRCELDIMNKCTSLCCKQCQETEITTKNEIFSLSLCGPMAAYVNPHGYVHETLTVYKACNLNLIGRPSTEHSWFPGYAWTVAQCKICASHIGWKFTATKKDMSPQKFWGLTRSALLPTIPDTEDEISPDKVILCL
Sequence of Cytochrome P450 3A4 (P08684 whole entry): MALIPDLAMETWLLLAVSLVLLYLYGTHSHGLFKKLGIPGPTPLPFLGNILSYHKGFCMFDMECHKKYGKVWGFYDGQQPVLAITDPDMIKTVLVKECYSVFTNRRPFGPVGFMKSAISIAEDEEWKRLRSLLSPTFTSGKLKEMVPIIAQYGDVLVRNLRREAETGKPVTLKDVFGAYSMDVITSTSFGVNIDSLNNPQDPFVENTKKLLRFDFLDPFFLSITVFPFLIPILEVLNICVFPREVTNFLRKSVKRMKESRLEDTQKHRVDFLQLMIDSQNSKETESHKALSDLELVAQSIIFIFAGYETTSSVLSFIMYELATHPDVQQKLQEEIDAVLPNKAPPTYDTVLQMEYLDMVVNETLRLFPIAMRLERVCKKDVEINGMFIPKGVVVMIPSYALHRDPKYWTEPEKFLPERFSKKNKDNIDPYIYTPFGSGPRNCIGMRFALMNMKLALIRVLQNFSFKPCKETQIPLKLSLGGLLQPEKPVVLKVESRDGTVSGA

As usually defined, the Ki is the dissociation constant of the complex between target and ligand, obtained from inhibition or displacement. Broadly, the Cmax is the highest concentration seen after dosing. As a reminder, the IC50 is the concentration that inhibits the measured activity by half. Take `O=C1CC[C@H](N2Cc3c(ccc4c3OCC43CCN(C[C@@H]4CCC5(CCN(c6ccc([C@@H]7c8ccc(O)cc8CC[C@@H]7c7ccccc7)cc6)CC5)OC4)CC3)C2=O)C(=O)N1`: the t1/2 in data set [1] was more than 1 h; in data set [2], 5.6 h. Further, on Estrogen receptor, the Ki stood at 0.00095 µM. The Cmax in data set [3] came out at 469.4 ng/mL. This compound returned a Vdss in data set [4] of 1.9 L/kg. Further, the figures for the F in data set [5] and in data set [6] were 37% and 49%, respectively. The half-inhibitory concentration (IC50) at Cytochrome P450 1A2, at Cytochrome P450 2C8 and against Cytochrome P450 3A4 was more than 10 µM in each case. The result in [7] and in data set [8] was Active. In data set [9], the outcome was inactive. In addition, the Activity entry in data set [10] is “Dose-dependent-effect”; in data set [12], 74%; in data set [13] it was “Non-toxic”. The compound also showed a concentration at 78 h in data set [11] of 380 ng/mL. The concentration at 24 h in data set [14] is 94 ng/mL.

The values are drawn from ChEMBL document CHEMBL6083286, “Discovery of ERD-12310A as an Exceptionally Potent and Orally Efficacious PROTAC Degrader of Estrogen Receptor α (ERα)” (J Med Chem, 2024).
